Assay results taken from US4916122A, “3'-Azido-2',3'-dideoxyuridine anti-retroviral composition” (University of Georgia Research Foundation, Inc., priority 1987, dated 1990).
≈ marks a conversion by molar mass, not a printed value.

Legend:
HIV RT = biological target: T1, HIV RT (Human immunodeficiency virus type 1 group M subtype B, UniProt P03367); assay: Effect of 5'-triphosphates on HIV reverse transcriptase (Table 6); type: biochemical; details: 5'-triphosphate; read-out: HIV RT K1
T1 construct: HIV reverse transcriptase

Host cell α-DNA pol = biological target: T2, Host cell α-DNA pol (Homo sapiens, UniProt P09884); assay: Effect of 5'-triphosphates on alpha DNA polymerase (Table 6); type: biochemical
T2 sequence (P09884 1-1462): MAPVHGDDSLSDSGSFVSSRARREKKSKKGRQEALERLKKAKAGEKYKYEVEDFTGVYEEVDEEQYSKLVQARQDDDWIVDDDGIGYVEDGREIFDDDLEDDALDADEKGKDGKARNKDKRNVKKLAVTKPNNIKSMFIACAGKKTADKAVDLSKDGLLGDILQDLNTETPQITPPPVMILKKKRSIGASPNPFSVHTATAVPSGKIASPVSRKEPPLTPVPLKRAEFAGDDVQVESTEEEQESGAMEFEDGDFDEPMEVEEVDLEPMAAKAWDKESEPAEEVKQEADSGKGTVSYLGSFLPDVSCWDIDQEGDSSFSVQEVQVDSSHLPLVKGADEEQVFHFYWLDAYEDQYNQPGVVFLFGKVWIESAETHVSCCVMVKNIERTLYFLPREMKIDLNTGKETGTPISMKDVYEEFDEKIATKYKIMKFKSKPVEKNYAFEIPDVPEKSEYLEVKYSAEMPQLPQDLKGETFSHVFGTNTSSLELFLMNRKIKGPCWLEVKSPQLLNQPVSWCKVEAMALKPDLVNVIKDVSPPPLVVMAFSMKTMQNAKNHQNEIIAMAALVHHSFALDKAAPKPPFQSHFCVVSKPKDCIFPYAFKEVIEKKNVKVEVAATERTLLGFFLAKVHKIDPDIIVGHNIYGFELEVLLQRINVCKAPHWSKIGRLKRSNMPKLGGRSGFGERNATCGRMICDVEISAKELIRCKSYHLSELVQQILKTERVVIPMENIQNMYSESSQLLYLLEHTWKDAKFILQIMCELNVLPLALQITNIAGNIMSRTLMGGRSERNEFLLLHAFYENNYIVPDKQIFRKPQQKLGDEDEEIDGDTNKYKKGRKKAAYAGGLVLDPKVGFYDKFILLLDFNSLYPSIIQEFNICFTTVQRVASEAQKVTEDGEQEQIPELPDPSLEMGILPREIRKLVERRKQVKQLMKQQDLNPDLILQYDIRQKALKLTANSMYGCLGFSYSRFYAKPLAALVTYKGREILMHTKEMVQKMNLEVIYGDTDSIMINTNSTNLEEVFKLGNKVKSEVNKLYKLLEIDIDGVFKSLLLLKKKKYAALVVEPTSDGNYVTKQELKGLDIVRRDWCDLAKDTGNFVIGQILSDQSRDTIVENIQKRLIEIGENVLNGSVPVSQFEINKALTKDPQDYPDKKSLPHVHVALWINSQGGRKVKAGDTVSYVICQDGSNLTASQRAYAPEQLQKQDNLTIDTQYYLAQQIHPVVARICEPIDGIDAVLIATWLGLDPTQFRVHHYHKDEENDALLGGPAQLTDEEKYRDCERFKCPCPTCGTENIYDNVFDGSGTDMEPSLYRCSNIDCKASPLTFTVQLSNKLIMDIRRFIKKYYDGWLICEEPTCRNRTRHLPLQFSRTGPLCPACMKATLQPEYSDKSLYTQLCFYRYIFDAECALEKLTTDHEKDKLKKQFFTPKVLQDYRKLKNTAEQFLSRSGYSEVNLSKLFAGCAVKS

[1] = test system: Mouse ecotropic (Cas-Br-M); assay: Median effective antiviral concentration against mouse ecotropic virus (Table 5); type: cell-based, murine retrovirus; details: unidentified retrovirus
Excerpt: (§1) A comparison of the differences in median effective an tiviral concentrations between human, non-human primate, and murine retroviruses is shown in Table 5. […] A further comparison of the activity of several nucleoside analogues, including CS-87, against HIV-1 and SIV in human PBM cells is shown in FIG. 6. The effect of delayed treatment with AZT, CS-87 or CS-91 on the replication of HIV-1 and SIV in human PBM cells is shown in FIGS. 7a, b, and c.

HIV (LAV-1) = assay: Median effective antiviral concentration against HIV (Table 5); type: cell-based; details: Human immunodeficiency virus 1
HIV-1 and SIV = assay: Effect of delayed treatment on replication of HIV-1 and SIV in human PBM cells (FIG. 7); type: cell-based, HIV-1; SIV
Excerpt: as §1

SIV (SMM) = assay: Median effective antiviral concentration against SIV (Table 5); type: cell-based, simian immunodeficiency virus; details: Simian immunodeficiency virus
Excerpt: as §1

sarcoma 180 cells = details: in vitro; Lin et al.; cited from earlier work
L1210 cells = details: in vitro; Lin et al.; Lin and Mancini; cited from earlier work
[2] = test system: two particular enzymes isolated from L1210 cells; details: Lin et al.; cited from earlier work
HIV-1 (Strain HTLV-III) = assay: Antiviral activity against HIV-1 in ATH-8 cells (Table 4); details: Human immunodeficiency virus 1, 240 h, read-out: ATH-8 (MIC)
HIV-1 = assay: microbe, parasite or virus in culture; details: Human immunodeficiency virus 1, PBMC, read-out: PBM (EC50)
HIV-1 (Strain RF-II) = assay: Antiviral activity against HIV-1 in HeLa-T4 cells (Table 4); type: cell-based; details: Human immunodeficiency virus 1, HeLaT4, HIV-1
Procedure: Evaluation in Hela-T4 cells infected with HIV-1 (Strain RF-II)
HeLa-T4 cells (described in Cell 47: 333, 1986) are maintained in Dulbecco's Modified Eagle medium containing 10% inactivated fetal calf serum, penicillin (100 U/ml) and streptomycin (100 μg/ml), and the antibiotic G418 (1 mg/ml). The cells are seeded onto a 96-well plate (2×10^4 cells/well per 0.1 ml), and two days later, the supernatant is removed and the virus added. After adsorption for 45 minutes, the inoculum is removed and the cells washed with phosphate-buffered saline (pH 7.2). The compounds at different concentration are then added in maintenance medium (containing 2% serum). […] The cells are fixed with a mixture of 5% glacial acetic acid/95% Ethanol for 15 minutes, and then stained with Giemsa (20% in PSB) for 4 hours. The plates are then washed and dried. The foci are then enumerated with a dissecting stereomicroscope.

SMILES: [N-]=[N+]=N[C@H]1C[C@H](n2ccc(=O)[nH]c2=O)O[C@@H]1COP(=O)(O)OP(=O)(O)OP(=O)(O)O [CS-87-TP, 3'-azido-2',3'-dideoxyuridine triphosphate]
- Ki (HIV RT): 0.009 µM
- Ki (Host cell α-DNA pol; 5'-triphosphate, read-out: Host cell α-DNA pol K1): 1200 µM
- Ratio: Cellular/HIV (Host cell α-DNA pol; K1 host cell α-DNA pol / K1 HIV RT): 133,333

SMILES: [N-]=[N+]=N[C@H]1C[C@H](n2ccc(N)nc2=O)O[C@@H]1CO [CS-91, 3' azido 2',3'-dideoxycytidine]
- EC50 [1]: 77.9 µM
- EC50 (HIV (LAV-1)): 0.39 µM
- effect of delayed treatment on replication of HIV-1 and SIV (HIV-1 and SIV): time of administration is critical to the effectiveness of the treatment
- EC50 (SIV (SMM)): 1.16 µM

SMILES: Nc1ccn([C@H]2CC[C@@H](CO)O2)c(=O)n1 [DDC, reference compound]
- activity against sarcoma 180 cells (sarcoma 180 cells): inactive
- activity against L1210 cells (L1210 cells): inactive
- inhibitory activity towards two particular enzymes isolated from L1210 cells [2]: only marginal inhibitory activity

SMILES: Nc1ccn([C@H]2CC[C@@H](CO)O2)c(=O)n1 [d2C (ddC), 2',3'-dideoxycytidine, reference compound]
- MIC (HIV-1 (Strain HTLV-III)): 0.47 µM (≈ 0.0993 µg/mL)
- EC50 (HIV-1): 0.011 µM
- EC50 (HIV-1 (Strain RF-II)): 0.48 µM
